Data as given in PubChem BioAssay AID256 (DTP/NCI, 2004).
Values joined by “and” are separate entries in the source; they are usually repeats but may differ in a detail not shown here. Equal values may be shown once. Inconclusive results and toxic doses are left out.

Tested on: CD2F1 mice, L1210 leukemia ip, survival T/C
Test: NCI In Vivo Anticancer Drug Screen. Data for tumor model L1210 Leukemia (intraperitoneal) in CD2F1 (CDF1) mice
Conditions: higher = longer survival
How it was run: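 Activity against a transplanted murine tumor was judged by comparing the compound group with a vehicle group. The outcome in the treated animals was divided by that in the controls.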

For `O=C1c2ccccc2C(=O)c2c(NCCNCCO)ccc(NCCNCCO)c21`, the T/C (endpoint: mean survival time, dose: 64.0 mg/kg/injection, schedule: Q01DX005 (oral), vehicle: acid diluted with saline) was 92 % of control, the T/C (endpoint: mean survival time, dose: 64.0 mg/kg/injection, schedule: Q01DX009 (ip), vehicle: water) was 90 % of control and the T/C (endpoint: mean survival time, dose: 64.0 mg/kg/injection, schedule: Q04DX003 (ip), vehicle: saline) was 289 % of control. The T/C (endpoint: mean survival time, dose: 90.0 mg/kg/injection, schedule: Q01DX001 (ip), vehicle: saline) was 182 % of control, the T/C (endpoint: mean survival time, dose: 128.0 mg/kg/injection, schedule: Q01DX005 (oral), vehicle: acid diluted with saline) was 100 % of control and the T/C (endpoint: mean survival time, dose: 128.0 mg/kg/injection, schedule: Q04DX003 (ip), vehicle: saline) was 247 % of control. For the same compound, the T/C (endpoint: mean survival time, dose: 150.0 mg/kg/injection, schedule: Q01DX001 (ip), vehicle: saline) was 221 % of control and 98 % of control, the T/C (endpoint: median survival time, dose: 0.25 mg/kg/injection, schedule: Q01DX005 (iv), vehicle: clinical formulation) was 97 % of control and the T/C (endpoint: median survival time, dose: 0.25 mg/kg/injection, schedule: Q01DX005 (iv), vehicle: water) was 102 % of control. For the same compound, the T/C (endpoint: median survival time, dose: 0.25 mg/kg/injection, schedule: Q01DX009 (ip), vehicle: water) was 118 % of control, the T/C (endpoint: median survival time, dose: 0.5 mg/kg/injection, schedule: Q01DX005 (iv), vehicle: clinical formulation) was 97 % of control and the T/C (endpoint: median survival time, dose: 0.5 mg/kg/injection, schedule: Q01DX005 (iv), vehicle: water) was 98 % of control. For the same compound, the T/C (endpoint: median survival time, dose: 0.5 mg/kg/injection, schedule: Q01DX009 (ip), vehicle: clinical formulation) was 121 % of control, the T/C (endpoint: median survival time, dose: 1.0 mg/kg/injection, schedule: Q01DX005 (iv), vehicle: clinical formulation) was 102 % of control and the T/C (endpoint: median survival time, dose: 1.0 mg/kg/injection, schedule: Q01DX005 (iv), vehicle: water) was 97 % of control. The T/C (endpoint: median survival time, dose: 2.0 mg/kg/injection, schedule: Q01DX005 (iv), vehicle: clinical formulation) was 97 % of control, the T/C (endpoint: median survival time, dose: 2.0 mg/kg/injection, schedule: Q01DX005 (iv), vehicle: water) was 102 % of control and the T/C (endpoint: median survival time, dose: 2.0 mg/kg/injection, schedule: Q01DX009 (ip), vehicle: Klucel (hydroxypropylcellulose) (HPC)) was 151 % of control. For the same compound, the T/C (endpoint: median survival time, dose: 4.0 mg/kg/injection, schedule: Q01DX005 (iv), vehicle: clinical formulation) was 115 % of control, the T/C (endpoint: median survival time, dose: 4.0 mg/kg/injection, schedule: Q01DX009 (ip), vehicle: Klucel (hydroxypropylcellulose) (HPC)) was 197 % of control and the T/C (endpoint: median survival time, dose: 4.0 mg/kg/injection, schedule: Q01DX009 (ip), vehicle: clinical formulation) was 160 % of control. The T/C (endpoint: median survival time, dose: 4.0 mg/kg/injection, schedule: Q01DX009 (ip), vehicle: water) was 156 % of control, the T/C (endpoint: median survival time, dose: 4.0 mg/kg/injection, schedule: Q01DX009 (sc), vehicle: Klucel (hydroxypropylcellulose) (HPC)) was 120 % of control and the T/C (endpoint: median survival time, dose: 4.0 mg/kg/injection, schedule: Q01DX009 (sc), vehicle: water) was 112 % of control. The T/C (endpoint: median survival time, dose: 8.0 mg/kg/injection, schedule: Q01DX009 (ip), vehicle: Klucel (hydroxypropylcellulose) (HPC)) was 156 % of control and 182 % of control, the T/C (endpoint: median survival time, dose: 8.0 mg/kg/injection, schedule: Q01DX009 (ip), vehicle: clinical formulation) was 196 % of control and the T/C (endpoint: median survival time, dose: 8.0 mg/kg/injection, schedule: Q01DX009 (ip), vehicle: water) was 177 % of control. The T/C (endpoint: median survival time, dose: 16.0 mg/kg/injection, schedule: Q01DX005 (iv), vehicle: water) was 155 % of control, the T/C (endpoint: median survival time, dose: 16.0 mg/kg/injection, schedule: Q01DX005 (oral), vehicle: Klucel (hydroxypropylcellulose) (HPC)) was 104 % of control and the T/C (endpoint: median survival time, dose: 16.0 mg/kg/injection, schedule: Q01DX009 (ip), vehicle: Klucel (hydroxypropylcellulose) (HPC)) was 170 % of control and 188 % of control. The T/C (endpoint: median survival time, dose: 16.0 mg/kg/injection, schedule: Q01DX009 (ip), vehicle: clinical formulation) was 238 % of control, the T/C (endpoint: median survival time, dose: 16.0 mg/kg/injection, schedule: Q01DX009 (ip), vehicle: water) was 262 % of control and the T/C (endpoint: median survival time, dose: 16.0 mg/kg/injection, schedule: Q01DX009 (sc), vehicle: Klucel (hydroxypropylcellulose) (HPC)) was 174 % of control. The T/C (endpoint: median survival time, dose: 16.0 mg/kg/injection, schedule: Q01DX009 (sc), vehicle: water) was 164 % of control, the T/C (endpoint: median survival time, dose: 32.0 mg/kg/injection, schedule: Q01DX005 (iv), vehicle: clinical formulation) was 180 % of control and the T/C (endpoint: median survival time, dose: 32.0 mg/kg/injection, schedule: Q01DX005 (iv), vehicle: water) was 174 % of control. For the same compound, the T/C (endpoint: median survival time, dose: 32.0 mg/kg/injection, schedule: Q01DX005 (oral), vehicle: Klucel (hydroxypropylcellulose) (HPC)) was 104 % of control, the T/C (endpoint: median survival time, dose: 32.0 mg/kg/injection, schedule: Q01DX009 (ip), vehicle: Klucel (hydroxypropylcellulose) (HPC)) was 197 % of control and 365 % of control and the T/C (endpoint: median survival time, dose: 32.0 mg/kg/injection, schedule: Q01DX009 (ip), vehicle: clinical formulation) was 115 % of control. For the same compound, the T/C (endpoint: median survival time, dose: 32.0 mg/kg/injection, schedule: Q01DX009 (ip), vehicle: water) was 101 % of control, the T/C (endpoint: median survival time, dose: 32.0 mg/kg/injection, schedule: Q01DX009 (sc), vehicle: water) was 172 % of control and the T/C (endpoint: median survival time, dose: 64.0 mg/kg/injection, schedule: Q01DX009 (sc), vehicle: Klucel (hydroxypropylcellulose) (HPC)) was 96 % of control. The T/C (endpoint: median survival time, dose: 64.0 mg/kg/injection, schedule: Q01DX009 (sc), vehicle: water) was 101 % of control and the T/C (endpoint: median survival time, dose: 1024.0 mg/kg/injection, schedule: Q01DX005 (oral), vehicle: Klucel (hydroxypropylcellulose) (HPC)) was 91 % of control.
